The NIST ThermoML archive (doi:10.1021/je060078g)
Numbers after ± are expanded uncertainties.

Settings: Liquid; pulse-heating method

| SMILES | Critical pressure [kPa] | Critical temperature [K] |
| --- | --- | --- |
| O=C(O)CCc1ccccc1 [3-phenylpropanoic acid] | 3460 ± 120 | 776 ± 8 |
| O=C(O)Cc1ccccc1 [phenylacetic acid] | 3950 ± 140 | 766 ± 8 |

Further lines, results first:

| Critical pressure [kPa] | Critical temperature [K] | SMILES |
| --- | --- | --- |
| 3210 ± 110 | 783 ± 8 | O=C(O)CCCc1ccccc1 [4-phenylbutanoic acid] |
| 2950 ± 100 | 790 ± 8 | O=C(O)CCCCc1ccccc1 [5-phenylvaleric acid] |
| 2600 ± 90 | 794 ± 8 | O=C(O)CCCCCc1ccccc1 [6-phenylhexanoic acid] |
| 2470 ± 90 | 798 ± 8 | O=C(O)CCCCCCc1ccccc1 [7-phenylheptanoic acid] |
